According to ChEMBL document CHEMBL3132769, “Fragment growing to retain or alter the selectivity of anchored kinase hinge-binding fragments” (Medchemcomm, 2014):

How the values were obtained:
[1] = target: Tyrosine-protein kinase ABL2 (Homo sapiens) (UniProt P42684); assay: Inhibition of human truncated Arg expressed in baculovirus assessed as substrate phosphorylation using fluorescence-labelled peptides as substrate at 0.2 uM after 90 mins by microfluidic peptide phosphorylation assay
[2] = target: T1, Serine/threonine-protein kinase Chk1 (Homo sapiens) (UniProt O14757); assay: Inhibition of human full length CHK1 expressed in baculovirus assessed as substrate phosphorylation using fluorescence-labelled peptides as substrate at 420 uM after 90 mins by microfluidic peptide phosphorylation assay
T1 sequence (whole entry): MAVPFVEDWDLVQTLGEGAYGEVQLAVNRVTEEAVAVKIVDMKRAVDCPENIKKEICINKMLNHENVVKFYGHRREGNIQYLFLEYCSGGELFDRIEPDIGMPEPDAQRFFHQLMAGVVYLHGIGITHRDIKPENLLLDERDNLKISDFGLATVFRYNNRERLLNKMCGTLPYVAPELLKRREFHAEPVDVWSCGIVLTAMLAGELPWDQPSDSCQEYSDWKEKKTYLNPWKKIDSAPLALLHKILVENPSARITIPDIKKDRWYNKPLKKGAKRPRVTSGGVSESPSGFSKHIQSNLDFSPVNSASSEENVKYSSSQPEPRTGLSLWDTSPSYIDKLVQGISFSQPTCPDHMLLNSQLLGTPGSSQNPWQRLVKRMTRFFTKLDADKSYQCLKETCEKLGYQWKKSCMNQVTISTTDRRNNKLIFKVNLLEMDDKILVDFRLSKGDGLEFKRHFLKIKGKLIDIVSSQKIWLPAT

[3] = target: Serine/threonine-protein kinase MARK2 (Homo sapiens) (UniProt Q7KZI7); assay: Inhibition of human full length MARK2 expressed in baculovirus assessed as substrate phosphorylation using fluorescence-labelled peptides as substrate at 420 uM after 90 mins by microfluidic peptide phosphorylation assay
Serine/threonine-protein kinase MARK2 (Homo sapiens), sequence (Q7KZI7 whole entry, the tested form may be a part): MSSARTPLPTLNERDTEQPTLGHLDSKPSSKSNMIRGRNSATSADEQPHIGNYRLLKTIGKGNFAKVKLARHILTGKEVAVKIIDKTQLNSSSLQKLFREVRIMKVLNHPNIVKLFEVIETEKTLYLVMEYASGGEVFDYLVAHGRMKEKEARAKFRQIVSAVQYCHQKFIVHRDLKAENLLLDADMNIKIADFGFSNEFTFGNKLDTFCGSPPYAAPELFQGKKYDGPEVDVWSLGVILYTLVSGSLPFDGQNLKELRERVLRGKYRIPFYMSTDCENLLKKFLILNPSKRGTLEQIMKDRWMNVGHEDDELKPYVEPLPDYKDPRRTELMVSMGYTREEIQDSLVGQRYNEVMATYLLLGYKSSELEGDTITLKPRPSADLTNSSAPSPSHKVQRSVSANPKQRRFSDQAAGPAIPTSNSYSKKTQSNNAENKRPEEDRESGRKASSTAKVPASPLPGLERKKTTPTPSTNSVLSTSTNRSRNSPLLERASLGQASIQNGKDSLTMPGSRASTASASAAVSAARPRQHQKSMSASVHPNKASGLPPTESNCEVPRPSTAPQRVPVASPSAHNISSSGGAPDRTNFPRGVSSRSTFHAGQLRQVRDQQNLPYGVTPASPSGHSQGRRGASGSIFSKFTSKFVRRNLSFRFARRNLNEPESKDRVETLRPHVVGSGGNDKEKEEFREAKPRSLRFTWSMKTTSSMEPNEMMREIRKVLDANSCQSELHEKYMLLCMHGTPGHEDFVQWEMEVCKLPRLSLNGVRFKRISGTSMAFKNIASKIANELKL

[4] = target: Calcium/calmodulin-dependent protein kinase type II subunit beta (Homo sapiens) (UniProt Q13554); assay: Inhibition of human CAMK2 beta catalytic domain expressed in baculovirus assessed as substrate phosphorylation using fluorescence-labelled peptides as substrate at 95 uM after 90 mins by microfluidic peptide phosphorylation assay
Calcium/calmodulin-dependent protein kinase type II subunit beta (Homo sapiens), sequence (Q13554 whole entry, the tested form may be a part): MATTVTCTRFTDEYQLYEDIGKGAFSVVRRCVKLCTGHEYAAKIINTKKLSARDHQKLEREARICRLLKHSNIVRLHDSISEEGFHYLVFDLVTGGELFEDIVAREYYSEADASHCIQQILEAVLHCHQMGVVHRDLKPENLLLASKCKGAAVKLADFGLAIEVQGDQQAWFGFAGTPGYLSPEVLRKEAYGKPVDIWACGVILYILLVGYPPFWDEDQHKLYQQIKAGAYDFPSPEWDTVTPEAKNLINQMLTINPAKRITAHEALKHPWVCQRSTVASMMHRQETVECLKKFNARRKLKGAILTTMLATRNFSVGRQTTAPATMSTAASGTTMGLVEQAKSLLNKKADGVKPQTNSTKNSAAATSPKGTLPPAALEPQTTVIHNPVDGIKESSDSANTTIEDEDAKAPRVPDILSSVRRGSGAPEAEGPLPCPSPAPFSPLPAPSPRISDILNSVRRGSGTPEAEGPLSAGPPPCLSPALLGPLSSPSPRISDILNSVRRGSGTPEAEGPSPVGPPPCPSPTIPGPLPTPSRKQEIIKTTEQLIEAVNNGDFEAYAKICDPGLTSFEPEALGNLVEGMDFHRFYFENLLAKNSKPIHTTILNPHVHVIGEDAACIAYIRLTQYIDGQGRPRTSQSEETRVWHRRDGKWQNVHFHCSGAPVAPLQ

[5] = target: T2, Testis-specific serine/threonine-protein kinase 1 (Homo sapiens) (UniProt Q9BXA7); assay: Inhibition of human full length TSSK1 expressed in baculovirus assessed as substrate phosphorylation using fluorescence-labelled peptides as substrate at 2 uM after 90 mins by microfluidic peptide phosphorylation assay
T2 sequence (whole entry): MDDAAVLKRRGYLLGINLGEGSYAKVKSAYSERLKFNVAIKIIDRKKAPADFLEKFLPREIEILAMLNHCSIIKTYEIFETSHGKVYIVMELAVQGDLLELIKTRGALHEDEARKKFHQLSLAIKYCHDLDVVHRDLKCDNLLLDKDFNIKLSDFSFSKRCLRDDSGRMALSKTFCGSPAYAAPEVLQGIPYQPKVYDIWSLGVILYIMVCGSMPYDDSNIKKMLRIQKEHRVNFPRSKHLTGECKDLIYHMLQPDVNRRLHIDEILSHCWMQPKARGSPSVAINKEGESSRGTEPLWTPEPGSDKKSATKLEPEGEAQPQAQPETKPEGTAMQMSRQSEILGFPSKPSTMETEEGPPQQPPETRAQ

[6] = tested on: Fibroblast growth factor receptor 2 (Homo sapiens), P21802 [N549H]; assay: Inhibition of human FGFR2 N549H mutant catalytic domain expressed in baculovirus assessed as substrate phosphorylation using fluorescence-labelled peptides as substrate at 2 uM after 90 mins by microfluidic peptide phosphorylation assay
Fibroblast growth factor receptor 2 (Homo sapiens), P21802 [N549H], sequence (P21802 whole entry N549H, the tested form may be a part): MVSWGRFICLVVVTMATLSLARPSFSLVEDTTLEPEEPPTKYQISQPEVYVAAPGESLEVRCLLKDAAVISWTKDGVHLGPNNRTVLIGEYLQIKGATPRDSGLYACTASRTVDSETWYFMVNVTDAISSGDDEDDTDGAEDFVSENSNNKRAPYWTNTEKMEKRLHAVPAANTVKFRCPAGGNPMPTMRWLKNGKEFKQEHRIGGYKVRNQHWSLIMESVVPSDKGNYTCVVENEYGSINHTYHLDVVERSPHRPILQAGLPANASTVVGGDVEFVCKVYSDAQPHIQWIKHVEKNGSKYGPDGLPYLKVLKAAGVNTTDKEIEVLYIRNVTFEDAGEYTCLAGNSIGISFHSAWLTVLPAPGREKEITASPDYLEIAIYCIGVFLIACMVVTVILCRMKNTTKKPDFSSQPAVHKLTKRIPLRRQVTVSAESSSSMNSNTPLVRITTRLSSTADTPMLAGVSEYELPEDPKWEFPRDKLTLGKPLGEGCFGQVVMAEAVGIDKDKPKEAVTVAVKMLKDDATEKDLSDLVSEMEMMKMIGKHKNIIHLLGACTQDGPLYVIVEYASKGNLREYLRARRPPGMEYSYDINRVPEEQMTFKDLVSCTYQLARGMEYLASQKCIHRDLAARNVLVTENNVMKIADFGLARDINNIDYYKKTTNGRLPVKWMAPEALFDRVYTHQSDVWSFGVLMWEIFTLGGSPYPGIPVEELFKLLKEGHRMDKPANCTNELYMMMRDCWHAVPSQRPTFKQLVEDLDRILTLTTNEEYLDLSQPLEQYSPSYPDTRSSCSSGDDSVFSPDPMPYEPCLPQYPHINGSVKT

[7] = target: T3, Cytoplasmic tyrosine-protein kinase BMX (Homo sapiens) (UniProt P51813); assay: Inhibition of human full length BMX expressed in baculovirus assessed as substrate phosphorylation using fluorescence-labelled peptides as substrate at 2 uM after 90 mins by microfluidic peptide phosphorylation assay
T3 sequence (whole entry): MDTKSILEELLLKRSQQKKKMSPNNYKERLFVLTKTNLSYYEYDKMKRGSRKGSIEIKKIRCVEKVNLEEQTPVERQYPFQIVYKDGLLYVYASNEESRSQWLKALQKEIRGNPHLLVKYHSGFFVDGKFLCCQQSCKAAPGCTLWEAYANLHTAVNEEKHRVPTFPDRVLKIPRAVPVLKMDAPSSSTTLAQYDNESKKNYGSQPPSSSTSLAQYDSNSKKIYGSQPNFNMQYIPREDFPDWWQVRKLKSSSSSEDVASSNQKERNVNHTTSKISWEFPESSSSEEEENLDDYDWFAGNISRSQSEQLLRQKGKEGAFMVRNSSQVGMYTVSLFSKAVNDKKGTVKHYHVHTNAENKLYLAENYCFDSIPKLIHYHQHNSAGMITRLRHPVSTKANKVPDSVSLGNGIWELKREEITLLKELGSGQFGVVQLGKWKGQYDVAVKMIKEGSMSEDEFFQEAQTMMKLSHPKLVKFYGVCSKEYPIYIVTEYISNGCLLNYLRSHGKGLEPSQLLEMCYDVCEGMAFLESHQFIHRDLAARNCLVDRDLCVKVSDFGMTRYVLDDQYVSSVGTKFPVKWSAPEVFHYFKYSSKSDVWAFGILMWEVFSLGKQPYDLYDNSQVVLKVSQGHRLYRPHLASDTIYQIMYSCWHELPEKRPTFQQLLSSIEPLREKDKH

[8] = target: Fibroblast growth factor receptor 3 (Homo sapiens) (UniProt P22607); assay: Inhibition of human FGFR3 catalytic domain expressed in baculovirus assessed as substrate phosphorylation using fluorescence-labelled peptides as substrate at 8 uM after 90 mins by microfluidic peptide phosphorylation assay
Fibroblast growth factor receptor 3 (Homo sapiens), sequence (P22607 23-806 limits assumed): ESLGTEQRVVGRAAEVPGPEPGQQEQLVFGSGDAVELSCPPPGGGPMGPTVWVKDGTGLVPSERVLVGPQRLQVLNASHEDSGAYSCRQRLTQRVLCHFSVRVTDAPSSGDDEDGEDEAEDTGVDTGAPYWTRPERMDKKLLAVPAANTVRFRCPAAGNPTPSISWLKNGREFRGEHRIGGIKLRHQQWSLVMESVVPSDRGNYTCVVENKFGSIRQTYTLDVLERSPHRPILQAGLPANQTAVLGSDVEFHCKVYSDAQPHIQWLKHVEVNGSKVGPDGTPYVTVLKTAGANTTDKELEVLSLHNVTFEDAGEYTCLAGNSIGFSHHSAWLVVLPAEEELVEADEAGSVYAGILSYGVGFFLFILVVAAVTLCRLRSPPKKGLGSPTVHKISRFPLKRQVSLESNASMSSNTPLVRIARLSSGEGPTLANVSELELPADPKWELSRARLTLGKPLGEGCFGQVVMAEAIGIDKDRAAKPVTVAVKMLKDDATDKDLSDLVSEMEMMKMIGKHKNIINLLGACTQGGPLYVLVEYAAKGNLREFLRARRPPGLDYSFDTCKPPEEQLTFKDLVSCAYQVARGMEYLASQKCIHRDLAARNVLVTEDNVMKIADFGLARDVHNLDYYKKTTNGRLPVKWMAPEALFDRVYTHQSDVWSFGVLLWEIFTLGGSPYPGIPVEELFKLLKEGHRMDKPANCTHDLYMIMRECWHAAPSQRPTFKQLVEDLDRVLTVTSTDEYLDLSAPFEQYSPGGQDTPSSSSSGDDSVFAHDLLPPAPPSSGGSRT

[9] = tested on: Tyrosine-protein kinase ABL1 (Homo sapiens), P00519 [H396P]; assay: Inhibition of human truncated ABL H396P mutant expressed in baculovirus assessed as substrate phosphorylation using fluorescence-labelled peptides as substrate at 8 uM after 90 mins by microfluidic peptide phosphorylation assay
[10] = target: MAP kinase p38 (Homo sapiens) (UniProt O15264+Q15759+Q16539+P53778); conditions: 0.1 uM
Description: Inhibition of human full length p38 beta2 expressed in Escherichia coli cell assessed as substrate phosphorylation using fluorescence-labelled peptides as substrate at 0.1 uM after 90 mins by microfluidic peptide phosphorylation assay

[11] = target: RAF proto-oncogene serine/threonine-protein kinase (Homo sapiens) (UniProt P04049); assay: Inhibition of human truncated c-Raf expressed in baculovirus assessed as substrate phosphorylation using fluorescence-labelled peptides as substrate at 0.1 uM after 90 mins by microfluidic peptide phosphorylation assay
RAF proto-oncogene serine/threonine-protein kinase (Homo sapiens), sequence (P04049 whole entry, the tested form may be a part): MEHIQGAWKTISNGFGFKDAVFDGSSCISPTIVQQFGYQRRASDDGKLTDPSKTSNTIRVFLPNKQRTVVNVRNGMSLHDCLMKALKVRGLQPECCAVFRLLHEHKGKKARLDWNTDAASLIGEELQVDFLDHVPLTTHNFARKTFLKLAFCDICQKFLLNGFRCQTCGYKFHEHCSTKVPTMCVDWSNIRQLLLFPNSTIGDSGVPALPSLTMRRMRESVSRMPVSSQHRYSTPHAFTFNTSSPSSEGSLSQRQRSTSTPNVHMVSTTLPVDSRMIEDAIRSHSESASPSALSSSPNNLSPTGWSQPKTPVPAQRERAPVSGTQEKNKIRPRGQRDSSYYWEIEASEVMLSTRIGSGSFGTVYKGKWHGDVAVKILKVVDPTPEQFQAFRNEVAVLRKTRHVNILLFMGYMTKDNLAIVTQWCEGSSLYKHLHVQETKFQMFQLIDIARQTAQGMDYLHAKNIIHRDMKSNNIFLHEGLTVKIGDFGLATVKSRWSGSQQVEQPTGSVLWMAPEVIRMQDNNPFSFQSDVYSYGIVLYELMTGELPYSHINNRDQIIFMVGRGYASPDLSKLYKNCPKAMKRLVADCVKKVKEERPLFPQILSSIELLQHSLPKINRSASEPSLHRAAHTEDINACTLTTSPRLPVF

Tyrosine-protein kinase ABL2 (Homo sapiens), sequence (P42684 whole entry, the tested form may be a part): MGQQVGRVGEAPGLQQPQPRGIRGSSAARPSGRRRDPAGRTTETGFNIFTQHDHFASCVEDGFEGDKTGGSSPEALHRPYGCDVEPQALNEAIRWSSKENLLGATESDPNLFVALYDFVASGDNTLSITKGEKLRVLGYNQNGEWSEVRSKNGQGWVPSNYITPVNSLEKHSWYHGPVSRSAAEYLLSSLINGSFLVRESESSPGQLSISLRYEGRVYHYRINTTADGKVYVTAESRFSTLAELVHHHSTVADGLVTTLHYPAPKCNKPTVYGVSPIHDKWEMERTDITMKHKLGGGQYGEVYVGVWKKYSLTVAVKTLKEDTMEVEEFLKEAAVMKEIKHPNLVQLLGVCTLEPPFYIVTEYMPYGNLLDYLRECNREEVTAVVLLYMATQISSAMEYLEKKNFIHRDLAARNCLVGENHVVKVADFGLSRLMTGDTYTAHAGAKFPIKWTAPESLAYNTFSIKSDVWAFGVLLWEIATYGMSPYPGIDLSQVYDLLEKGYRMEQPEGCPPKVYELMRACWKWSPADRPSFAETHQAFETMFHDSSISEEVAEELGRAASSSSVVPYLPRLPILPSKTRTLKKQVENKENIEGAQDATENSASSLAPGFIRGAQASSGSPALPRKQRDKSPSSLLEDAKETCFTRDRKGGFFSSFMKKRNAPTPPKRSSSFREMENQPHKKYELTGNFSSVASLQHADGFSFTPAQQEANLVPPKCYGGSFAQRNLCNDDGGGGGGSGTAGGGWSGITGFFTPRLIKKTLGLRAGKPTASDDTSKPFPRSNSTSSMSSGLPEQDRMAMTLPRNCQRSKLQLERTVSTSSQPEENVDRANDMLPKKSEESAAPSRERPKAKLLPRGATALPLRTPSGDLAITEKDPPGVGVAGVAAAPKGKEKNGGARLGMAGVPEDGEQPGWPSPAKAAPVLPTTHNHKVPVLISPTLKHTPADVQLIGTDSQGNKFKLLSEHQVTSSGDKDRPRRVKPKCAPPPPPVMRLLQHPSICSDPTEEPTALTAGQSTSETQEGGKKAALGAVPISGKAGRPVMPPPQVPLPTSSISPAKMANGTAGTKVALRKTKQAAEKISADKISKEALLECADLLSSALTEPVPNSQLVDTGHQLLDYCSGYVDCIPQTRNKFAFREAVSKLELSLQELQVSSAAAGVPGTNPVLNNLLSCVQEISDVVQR

Compound: Clc1ccc(C2(c3ccc(-c4ncnc5[nH]cnc45)cc3)CCNCC2)cc1
- inhibition [1]: 4.5%

Compound: c1nc(N2CCOCC2)c2nc[nH]c2n1
- inhibition [2]: 88.5%
- inhibition [3]: 88%

Compound: NCCc1ccc(-c2ncnc3[nH]cnc23)cc1
- inhibition [4]: 2%

Compound: NC1CCN(c2ncnc3[nH]ccc23)CC1
- inhibition [5]: 0%
- inhibition [6]: 1%
- inhibition [7]: 2%

Compound: NCC1CCN(c2ncnc3[nH]ccc23)CC1
- inhibition [8]: 0.5%
- inhibition [9]: 20.5%

Compound: C[C@H](CN(C)C)Oc1nc(Nc2cc3cccc(Cl)c3cn2)cnc1C#N
- inhibition [10]: 0%
- inhibition [11]: 4%
